Test results taken from patent US5472951A, “Stabilizer for phospholipid vesicles” (Chiba Flour Milling Co., Ltd., priority 1992, dated 1995).

Tests used:
Assay type in all cases: physicochemical
[1] = aggregation on addition of dextran: turbidity at 800 nm
Method: The precipitation of the vesicles was dispersed again to be 5 wt %, and thereto dextran (molecular weight of 40000) was added as a colloid osmotic pressure controller. The stability of the dispersion was observed by determination of turbidity at 800 nm.
The stability of the MPDSPE-modified vesicle was evaluated by adding, to the above dispersion, dextran (molecular weight: 4000) which is a colloid osmotic pressure controller, and measuring the turbidity from the absorbance at 800 nm. […] This proves the aggregation inhibition effect of the MPDSPE of the vesicle stabilizer of the present invention.
The resulting dispersion was treated with a microfluidizer at 2500 psi at 4° C. for 15 minutes to obtain a dispersion of SDSPE-modified vesicles having average particle diameter of 350±95 nm. This dispersion was centrifuged (100000 G, 30 minutes) to obtain a precipitate of vesicles. The precipitate was dispersed again into a solution to be 5% by weight. Occurrence of aggregation of the vesicles was tested by adding dextran (molecular weight 40000) to the dispersion and measuring the turbidity change at 800 nm. […] Therefrom the modification was confirmed to be effective to inhibition of aggregation caused by dextran.
5.0 g of a powdery lipid mixture containing the above STEC (DPPC:cholesterol:stearic acid:STEC=7:7:2:2 in molar ratio) was dispersed in 100 ml of saline, and the dispersion was stirred at 4° C. for 24 hours. The resulting dispersion was treated with a microfluidizer at 2500 psi at 4° C. for 15 minutes. This dispersion was centrifuged (10000 G, 30 minutes) to obtain precipitate of STEC-modified vesicles. The precipitate was dispersed again in to saline to be 5 wt %. The stability of the vesicles was evaluated by adding 2.5 wt % solution of dextran (molecular weight 40000) to the above vesicle layer and measuring the turbidity change at 800 nm. The STEC-modified vesicles caused the turbidity increase of 58% of that of the unmodified vesicles (DPPC:cholesterol:stearic acid=7:7:2 in molar ratio), thereby the inhibition effect of STEC, a vesicle stabilizer of the present invention being confirmed.

[2] = particle diameter of modified vesicles; conditions: mixed lipid vesicles, microfluidizer
[3] = introduction ratio of ODM into DODPC vesicles
Method: Polymerizable 2,4-octadecadienyl-0-α(β)-maltose (hereinafter referred to as "ODM") was prepared from maltose and 2,4-octadecadienol according to the method shown in Example 11. A solution of 2.0 mg of this ODM in 1 ml of chloroform was mixed with a solution of 200 mg of di(2,4-octadecadienoyl)phosphatidylcholine (hereinafter referred to as "DODPC") as a polymerizable lipid in 5 ml of chloroform. The mixture was evaporated by a rotary evaporator to form a thin film on a wall of an eggplant-shape flask. 20 ml of pure water was added thereto, and agitated with glass beads by a vortex mixer. The resulting ODM-modified vesicle dispersion was treated by an extruder to prepare a dispersion of nearly uniform particle diameters. The vesicle dispersion was irradiated with γ-ray to copolymerize the ODM and the polymerizable lipid, DODPC. A portion of the irradiated dispersion was diluted fivefold with pure water and was left standing at 4° C. for 24 hours. The introduction ratio of ODM was measured by centrifuging the diluted and undiluted dispersions (300000 G, 60 minutes) respectively and determining the ODM in the supernatant by a phenol-sulfuric acid method.

[4] = turbidity increase of copolymerized vesicle dispersion, 4 °C for 24 hours; conditions: before fivefold dilution
[5] = introduction ratio into mixed lipid vesicles; conditions: dimyristoyl phosphatidylcholine:cholesterol:myristic acid:LPMS 7:7:2:0.3
Method: The ratio of introduction of the stabilizer into the vesicles is determined by treating the dispersion of the vesicles by gel filtration or ultracentrifuge to remove the superfluous stabilizer which has not been introduced into the vesicles, and quantitatively determining saccharide in respective fractions by a phenol-sulfuric acid method. The stabilizer of the present invention, when employed in an amount of from 2 to 10 mol %, is introduced into the vesicles in a ratio of 90% or more.
The effect of the LPMS of the present invention on stabilization of vesicles was evaluated as follows. A powdery lipid mixture containing LPMS was prepared from dimyristoyl phosphatidylcholine, cholesterol, myristic acid, and LPMS (in molar ratio of 7:7:2:0.3) was prepared by freeze-drying. 100 ml of saline was added to 10 g of the above powdery lipid mixture, and the mixture was stirred at 4° C. for 24 hours to prepare a liquid dispersion. […] The introduction ratio of the LPMS was 85% according to saccharide determination of the supernatant liquid after centrifugation.
500 mg of a powdery lipid mixture containing MPDSG of the present invention was prepared from DPPC, cholesterol, distearyl phosphatidic acid, and MPDSG (in molar ratio of 10:9:0.9:0.5) was prepared by freeze-drying from benzene. […]

| Structure (SMILES) | turbidity change on addition of dextran (in words) [1] | average diameter [2] | other results |
| --- | --- | --- | --- |
| CCCCCCCCCCCCCCCCCC(=O)OCC(COP(=O)(O)OCCNC(=O)[C@H](O)[C@@H](O)[C@H](O[C@@H]1O[C@H](CO)[C@@H](O)[C@H](O)[C@H]1O)[C@H](O)CO)OC(=O)CCCCCCCCCCCCCCCCC (stereo partly drawn) [SDSPE, cellobiose distearoylphosphatidyl ethanolamine] | little rise of turbidity | 350±95 nm |  |
| CC(C)CCC[C@@H](C)[C@H]1CC[C@H]2[C@@H]3CC=C4C[C@@H](OCCOCCOCCOCCOC5O[C@H](CO)[C@@H](O[C@@H]6O[C@H](CO)[C@@H](O)[C@H](O)[C@H]6O)[C@H](O)[C@H]5O)CC[C@]4(C)[C@H]3CC[C@]12C (stereo partly drawn) [STEC, cellobiosyl tetraethyleneglycosyl cholesterol] |  |  | turbidity increase on dextran addition relative to unmodified vesicles ([1]; 2.5 wt % dextran (MW 40000), DPPC:cholesterol:stearic acid:STEC 7:7:2:2): 58% |
| CCCCCCCCCCCCCCCCCC(=O)OCC(COP(=O)(O)OCCNC(=O)[C@H](O)[C@@H](O)[C@H](O[C@H]1O[C@H](CO)[C@@H](O[C@H]2O[C@H](CO)[C@@H](O[C@H]3O[C@H](CO)[C@@H](O[C@H]4O[C@H](CO)[C@@H](O)[C@H](O)[C@H]4O)[C@H](O)[C@H]3O)[C@H](O)[C@H]2O)[C@H](O)[C@H]1O)[C@H](O)CO)OC(=O)CCCCCCCCCCCCCCCCC (stereo partly drawn) [MPDSPE, Maltopentaose distearoyl phosphatidyl ethanolamide] | did not show turbidity rise | 320±115 nm |  |
| CCCCCCCCCCCCCC=CC=CCOC1O[C@H](CO)[C@@H](O[C@H]2O[C@H](CO)[C@@H](O)[C@H](O)[C@H]2O)[C@H](O)[C@H]1O (stereo partly drawn) [ODM, 2,4-octadecadienyl-0-α(β)-maltose] |  |  | introduction ratio of ODM ([3]; copolymerized by γ-ray, both diluted (fivefold) and undiluted dispersions): 94.2%; introduction ratio of ODM ([3]; not copolymerized, after fivefold dilution): 66.9%; introduction ratio of ODM ([3]; not copolymerized, before fivefold dilution): 93.8%; turbidity increase relative to unmodified vesicles [4]: 10.9% |
| CCCCCCCCCCCCCCCCCCOC1O[C@H](CO)[C@@H](O)[C@H](O[C@@H]2O[C@H](CO)[C@@H](O)[C@H](O[C@@H]3O[C@H](CO)[C@@H](O)[C@H](O[C@@H]4O[C@H](CO)[C@@H](O)[C@H](O[C@@H]5O[C@H](CO)[C@@H](O)[C@H](O)[C@H]5O)[C@H]4O)[C@H]3O)[C@H]2O)[C@H]1O (stereo partly drawn) [LPMS, laminaripentaose monostearyl ether] | did not give turbidity increase | 300±130 nm | introduction ratio [5]: 85% |
